Data on 2 sequences can be found in patent publication US20170224758A1, “COMPOSITIONS AND METHODS OF TREATING MUSCULAR DYSTROPHY” (THE BROAD INSTITUTE, INC., priority 2014, published 2017).

The target in the data set is T1, Myogenin (Mus musculus, UniProt P12979).
T1 construct: electrophoretic mobility shift assays (EMSA) were carried out using muscle cell nuclear extracts; host or cells: C2C12 nuclear extract
T1 sequence (P12979 1-224): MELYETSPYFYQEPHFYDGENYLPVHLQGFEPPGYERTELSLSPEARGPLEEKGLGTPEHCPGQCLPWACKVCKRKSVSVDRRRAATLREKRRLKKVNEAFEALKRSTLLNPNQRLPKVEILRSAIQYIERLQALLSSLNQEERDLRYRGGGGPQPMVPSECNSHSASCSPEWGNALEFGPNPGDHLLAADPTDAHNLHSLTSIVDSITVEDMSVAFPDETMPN
Description: Electrophoretic mobility shift assay (EMSA) with muscle cell nuclear extracts. The settings on record: biotin labeled probe, C2C12 nuclear extract. The data set is classed as binding.

As for “CTCCTTTATTTCAGCGGAACTAAAGAAGTCTC (DNA, backbone and methylation of C not given here; duplex with complementary strand, biotin-labeled probe or unlabeled competitor) [G probe]”, the “binding of Myogenin protein (EMSA)” value was “did not bind at all”.
On to “CTCCTTTATTTCAGCTGAACTAAAGAAGTCTC (DNA, backbone and methylation of C not given here; duplex with complementary strand, biotin-labeled probe or unlabeled competitor) [T probe, biotin labeled duplex EMSA probe with the escaper variant of the Jagged1 promoter]”, for which the “binding of Myogenin protein (EMSA)” value is given as “robustly bound”.
